Like-named read-outs stand apart in the source and are kept apart here. Values belong to the molecule of their own block, whether it stands above or below them.
Key:
[1] = system: Peripheral blood mononuclear cells (PBMCs) mixed with mitomycin C treated RPMI1788 cells; assay: Mixed lymphocyte reaction (MLR) assay, 3H-thymidine uptake
From the text: In the MLR assay PBMCs from two individuals are mixed together in tissue culture for several days. […] In the one-way MLR test, the mononuclear cells from one of the individuals are inactivated (usually by treatment with mitomycin C or irradiation), thereby allowing only the untreated remaining population of mononuclear cells, such as lymphocytes, to proliferate in response to foreign histocompatibility antigens.
The immunosuppressive effect of test compounds was also investigated using MLR assays. Peripheral blood mononuclear cells (PBMCs) were isolated from heparinized blood of healthy donors by density-gradient centrifugation over Lymphoprep. […] RPMI1788 cells were treated with 30 μg/mL mitomycin C for 20 min at 37° C., washed four times with medium, and finally suspended in complete RPMI medium to a density of 0.45×10^6 cells/mL. An amount of 100 μL of each cell suspension was mixed with 20 μL of diluted compound. The mixed cells were cultured at 37° C. for 6 days in 5% CO2. […] Thereafter, the cells were harvested on glass filter paper and the counts per minute (cpm) determined in a liquid scintillation counter.

PI4KA (PI4K alpha) = molecular target: T1, PI4KA (PI4K alpha) (Homo sapiens, UniProt P42356); assay: Commercial kinase activity assay (Invitrogen, ADP TR-FRET); assay type: biochemical; conditions: 10 μM test compound
T1 construct: purchased Invitrogen

[2] = molecular target: T2, PI3KCB (PI3K p110β/p85α (h)) (Homo sapiens, UniProt P42338); assay: Commercial kinase activity assay (Millipore, HTRF); assay type: biochemical; conditions: 10 μM test compound
T2 construct: purchased Millipore
Method: LOK (h) was incubated with 8 mM MOPS pH 7.0, 0.2 mM EDTA, 250 μM […], 10 mM MgAcetate and [γ-^33P-ATP] (specific activity approx. 500 cpm/pmol, concentration as required). The reaction was initiated by the addition of the MgATP mix. After incubation for 40 minutes at room temperature, the reaction was stopped by the addition of 3% phosphoric acid solution. 10 μL of the reaction was then spotted onto a P30 filtermat and washed three times for 5 minutes in 75 mM phosphoric acid and once in methanol prior to drying and scintillation counting. PI3K p110β/p85α (h) PI3K (p110β/p85α) (h) was incubated in assay buffer containing 10 μM phosphatidylinositol-4,5-bisphosphate and MgATP (concentration as required). The reaction was initiated by the addition of the MgATP mix. After incubation for 30 minutes at room temperature, the reaction was stopped by the addition of stop solution containing EDTA and biotinylated phosphatidylinositol-3,4,5-trisphosphate. Finally, detection buffer was added, which contains europium-labelled anti-GST monoclonal antibody, GST-tagged GRP1 PH domain and streptavidinallophycocyanin. The plate was then read in time-resolved fluorescence mode and the homogenous time-resolved fluorescence (HTRF®) signal determined according to the formula HTRF=10000×(Em665nm/Em620 nm). […]

[3] = molecular target: PI4KIIIβ (PI4KB, PI4K beta) (Homo sapiens, UniProt Q9UBF8); assay: Commercial kinase activity assay (Invitrogen, ADP TR-FRET); conditions: for inhibition at 10 µM: read-out: % inhibition of PI4KIIIβ @ 10 μM
Method: PI4KB (PI4K beta) The 2× PI4KB (PI4K beta)/PI Lipid Kinase Substrate mixture was prepared in 50 mM HEPES pH 7.5, 0.1% CHAPS, 1 mM EGTA, 4 mM MgCl2. […] After a 60-minute development reaction incubation at room temperature, the fluorescence was read on plate reader and the data analyzed.

PAK1 = molecular target: T3, PAK1 (Homo sapiens, UniProt Q13153); assay: Commercial kinase activity assay (Invitrogen, fluorescence); assay type: biochemical; conditions: 10 μM test compound
T3 construct: made in house; host or cells: E. coli BL21-derived host (T7 phage) or HEK-293

LOK (h) = molecular target: T4, LOK (h) (Homo sapiens, UniProt O94804); assay: Commercial kinase activity assay (Millipore, 33P-ATP filter); assay type: biochemical; conditions: 10 μM test compound
T4 construct: purchased Millipore
Method: (§1) LOK (h) was incubated with 8 mM MOPS pH 7.0, 0.2 mM EDTA, 250 μM […], 10 mM MgAcetate and [γ-^33P-ATP] (specific activity approx. 500 cpm/pmol, concentration as required). The reaction was initiated by the addition of the MgATP mix. After incubation for 40 minutes at room temperature, the reaction was stopped by the addition of 3% phosphoric acid solution. 10 μL of the reaction was then spotted onto a P30 filtermat and washed three times for 5 minutes in 75 mM phosphoric acid and once in methanol prior to drying and scintillation counting. PI3K p110β/p85α (h) PI3K (p110β/p85α) (h) was incubated in assay buffer containing 10 μM phosphatidylinositol-4,5-bisphosphate and MgATP (concentration as required). The reaction was initiated by the addition of the MgATP mix. After incubation for 30 minutes at room temperature, the reaction was stopped by the addition of stop solution containing EDTA and biotinylated phosphatidylinositol-3,4,5-trisphosphate. Finally, detection buffer was added, which contains europium-labelled anti-GST monoclonal antibody, GST-tagged GRP1 PH domain and streptavidinallophycocyanin. The plate was then read in time-resolved fluorescence mode and the homogenous time-resolved fluorescence (HTRF®) signal determined according to the formula HTRF=10000×(Em665nm/Em620 nm). YSK4 (h) YSK4 (h) was incubated with 8 mM MOPS pH 7.0, 0.2 mM EDTA, 250 […], 10 mM MgAcetate and [γ-^33P-ATP] (specific activity approx. 500 cpm/pmol, concentration as required). The reaction was initiated by the addition of the MgATP mix. After incubation for 40 minutes at room temperature, the reaction was stopped by the addition of 3% phosphoric acid solution. 10 μL of the reaction was then spotted onto a P30 filtermat and washed three times for 5 minutes in 75 mM phosphoric acid and once in methanol prior to drying and scintillation counting. PI4KA (PI4K alpha) The 2× PI4KA (PI4K alpha)/PI Lipid Kinase Substrate mixture was prepared in 20 mM Tris, pH 7.5, 0.4% Triton X-100, 5 mM MgCl2, 0.5 mM EGTA. The final 10 μL Kinase Reaction consisted of 75-300 ng PI4KA (PI4K alpha) and 100 μM PI Lipid Kinase Substrate in 7.5 mM HEPES, 10 mM Tris, pH 7.5, 0.2% Triton X-100, 2.5 mM MgCl2, 0.25 mM EGTA. After the 1 hour Kinase Reaction incubation, 5 μL of Detection Mix consisting of a europium labeled anti-ADP antibody, an Alexa Fluor® 647 labeled ADP tracer, and EDTA (to stop the kinase reaction) was added to the assay well. ADP formed by the kinase reaction (in the absence of an inhibitor) displaced the Alexa Fluor® 647 labeled ADP tracer from the antibody, resulting in a decrease in the TR-FRET signal. […] PI4KB (PI4K beta) The 2× PI4KB (PI4K beta)/PI Lipid Kinase Substrate mixture was prepared in 50 mM HEPES pH 7.5, 0.1% CHAPS, 1 mM EGTA, 4 mM MgCl2. […]

YSK4 (h) = molecular target: T5, YSK4 (h) (Homo sapiens, UniProt Q56UN5); assay: as above; assay type: biochemical; conditions: 10 μM test compound
T5 construct: purchased Millipore
T5 sequence (Q56UN5 1-1328): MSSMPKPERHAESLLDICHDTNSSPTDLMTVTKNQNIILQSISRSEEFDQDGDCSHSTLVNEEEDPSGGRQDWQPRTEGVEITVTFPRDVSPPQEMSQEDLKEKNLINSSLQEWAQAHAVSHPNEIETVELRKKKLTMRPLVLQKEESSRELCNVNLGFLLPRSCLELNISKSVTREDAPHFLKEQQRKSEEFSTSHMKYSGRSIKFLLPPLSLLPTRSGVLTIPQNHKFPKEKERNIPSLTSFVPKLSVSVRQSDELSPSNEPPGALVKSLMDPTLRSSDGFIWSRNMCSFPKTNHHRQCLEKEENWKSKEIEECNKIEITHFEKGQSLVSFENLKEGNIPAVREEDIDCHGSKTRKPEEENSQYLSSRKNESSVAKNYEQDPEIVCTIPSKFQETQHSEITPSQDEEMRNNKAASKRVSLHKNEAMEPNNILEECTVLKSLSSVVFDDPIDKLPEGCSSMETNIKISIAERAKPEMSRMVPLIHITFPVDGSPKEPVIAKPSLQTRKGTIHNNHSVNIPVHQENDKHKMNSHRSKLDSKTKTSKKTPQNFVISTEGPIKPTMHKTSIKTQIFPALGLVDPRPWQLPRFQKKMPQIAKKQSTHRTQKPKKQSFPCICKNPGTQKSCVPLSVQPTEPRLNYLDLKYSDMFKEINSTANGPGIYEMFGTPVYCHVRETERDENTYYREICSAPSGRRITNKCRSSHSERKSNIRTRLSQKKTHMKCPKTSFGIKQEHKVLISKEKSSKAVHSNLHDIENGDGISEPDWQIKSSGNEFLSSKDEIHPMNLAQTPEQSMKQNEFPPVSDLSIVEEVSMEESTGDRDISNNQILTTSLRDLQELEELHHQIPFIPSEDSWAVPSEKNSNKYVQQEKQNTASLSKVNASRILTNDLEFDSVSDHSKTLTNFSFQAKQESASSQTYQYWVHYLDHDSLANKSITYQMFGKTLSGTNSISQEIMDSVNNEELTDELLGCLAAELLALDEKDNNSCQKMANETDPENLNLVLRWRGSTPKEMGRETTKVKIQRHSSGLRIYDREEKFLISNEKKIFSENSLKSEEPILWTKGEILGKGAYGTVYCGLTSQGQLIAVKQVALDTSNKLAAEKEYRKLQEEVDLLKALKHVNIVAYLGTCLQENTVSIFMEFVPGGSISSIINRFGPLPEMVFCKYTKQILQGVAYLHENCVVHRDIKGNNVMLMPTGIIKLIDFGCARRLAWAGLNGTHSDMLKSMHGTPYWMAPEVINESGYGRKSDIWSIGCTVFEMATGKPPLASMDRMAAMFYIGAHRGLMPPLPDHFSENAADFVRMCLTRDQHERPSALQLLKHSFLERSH
Method: as §1

[4] = system: cardiac allograft rejection; assay: Cardiac allograft transplantation and tolerance model, treatment day 0 to day 30 (Example 9)
From the text: The activity of test compound in a mouse model of cardiac allograft transplantation experiment was investigated. […] Animals with beating graft at day 60 were rechallenged with a second graft from the same strain donor or from a third party donor.
To evaluate the operational tolerance phenotype, animals with functional graft at day 60 were challenged with a second graft from the same donor strain or from a third party. No treatment was applied.
Inbreed C57BL/6 H-2^b and Balb/c H-2^d female mice, 8-10 weeks old, 20-25 g, were used as donor and recipient, respectively. Heterotopic heart transplantation was performed by implanting the donor heart on the neck of recipients using conventional microsurgery techniques. Graft beating was checked daily by inspection and palpation. Cessation of beating indicated graft rejection. The third party donor was C3H H-2^k female mice, 8-10 weeks old, 20-25 gr.
Treatment started the day of transplantation (day 0) until day 30 post transplantation.

[5] = system: murine splenocytes stimulated with α-CD3 antibody; assay: Cytokine secretion after α-CD3 stimulation; assay type: cell-based, Balb/C mice; conditions: Mus musculus, Splenocyte, 24 h
Method: The ability of test compounds to inhibit cytokine release by murine splenocytes after stimulation with α-CD3 antibody was also investigated.
2×10^6 splenocytes from Balb/C female mice, 8-10 weeks old in 220 μl of complete medium were stimulated with 0.1 μg of hamster anti mouse CD3ε antibody in presence of various concentrations of test compounds. After 24 h of incubation at 37° C., 5% CO2, supernatant were collected and cytokine titers were determined by flow cytometry according manufacturer protocols (MCB United States, Arlington, Mass., USA).
The results are shown in FIG. 1 compared to a DMSO negative control (▾). […].

[6] = system: collagen-induced arthritis; assay: Collagen-induced arthritis model; assay type: in vivo, DBA1 male mice; conditions: 40 mg/kg/d oral gavage
Method: The activity of test compound in an in vivo model, the collagen-induced arthritis model, was investigated. […] DBA1 male mice, 8-10 weeks old, were distributed in 2 groups according to the treatment. Twelve animals received daily treatment with vehicle (1% methylcellulose), twelve others received compound (3) at 40 mg/kg/d in 1% methylcellulose. The treatment initiation started the day before the intradermal injection at the base of the tail of 100 μg of emulsified chicken collagen II in presence of complete Freund adjuvant and added heat-killed Mycobacterium butyricum. Daily inspection of the mice was performed to weight animals and quantify disease score according to the following scale (score 0: normal; score 1: redness and/or swelling in one joint; score 2: redness and/or swelling in more than one joint; score 3: redness and/or swelling in the entire paw; score 4: deformity and/or ankylosis). On the day of sacrifice (day 42) serum were collected and anti-collagen II antibody titers were determined by ELISA. Joints were harvested, fixed in 6% paraformaldehyde, decalcified in formic acid 6% for 48 h, sliced and stained by hematoxylin and eosin staining. Hyperplasia of the synovium, infiltration of mono and polymorphonuclear cells and pannus formation parameters were scored blindly.

[7] = system: cardiac allograft rejection; assay: Cardiac allograft transplantation model, treatment day -1 to day 30 (Examples 7 and 8); assay type: in vivo, mice (C57BL/6 donor, Balb/c recipient); conditions: Example 8
Method: Inbreed C57BL/6 H-2b and Balb/c H-2d female mice, 8-10 weeks old, 20-25 g, were used as donor and recipient, respectively. Heterotopic heart transplantation was performed by implanting the donor heart on the neck of recipients using conventional microsurgery techniques. Graft beating was checked daily by inspection and palpation. Cessation of beating indicated graft rejection, which was confirmed by histological examination. Housing and all experimental animal procedures were approved by the Institutional Animal Care and Research Advisory Committee of the KU Leuven.

[8] = RPMI-1788, 144 h, read-out: IC50 MLR, 6 days culture
[9] = animals with functional graft at day 60, no treatment, n=2

Sequence of PI4KIIIβ (PI4KB, PI4K beta) (Q9UBF8 whole entry): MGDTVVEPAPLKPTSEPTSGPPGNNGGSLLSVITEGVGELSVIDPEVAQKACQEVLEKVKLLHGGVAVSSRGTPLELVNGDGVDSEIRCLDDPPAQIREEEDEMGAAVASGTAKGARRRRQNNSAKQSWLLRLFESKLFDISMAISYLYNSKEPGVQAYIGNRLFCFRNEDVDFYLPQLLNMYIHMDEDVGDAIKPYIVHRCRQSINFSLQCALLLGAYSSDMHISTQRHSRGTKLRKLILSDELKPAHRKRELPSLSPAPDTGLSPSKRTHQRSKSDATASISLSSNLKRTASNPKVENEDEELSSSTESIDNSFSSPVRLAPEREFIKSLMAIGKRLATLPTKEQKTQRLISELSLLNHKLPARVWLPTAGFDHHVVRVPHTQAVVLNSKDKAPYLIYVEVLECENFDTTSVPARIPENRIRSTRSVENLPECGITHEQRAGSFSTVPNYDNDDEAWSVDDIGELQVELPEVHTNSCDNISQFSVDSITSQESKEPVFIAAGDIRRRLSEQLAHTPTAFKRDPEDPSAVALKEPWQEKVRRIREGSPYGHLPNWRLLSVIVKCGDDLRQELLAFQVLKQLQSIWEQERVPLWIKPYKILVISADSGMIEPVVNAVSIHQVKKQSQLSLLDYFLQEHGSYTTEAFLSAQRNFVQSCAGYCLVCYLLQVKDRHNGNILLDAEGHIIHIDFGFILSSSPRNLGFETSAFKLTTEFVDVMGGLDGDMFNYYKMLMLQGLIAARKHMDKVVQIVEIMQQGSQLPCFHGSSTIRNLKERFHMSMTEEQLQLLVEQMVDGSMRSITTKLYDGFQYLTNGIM
T1 sequence (P42356 whole entry): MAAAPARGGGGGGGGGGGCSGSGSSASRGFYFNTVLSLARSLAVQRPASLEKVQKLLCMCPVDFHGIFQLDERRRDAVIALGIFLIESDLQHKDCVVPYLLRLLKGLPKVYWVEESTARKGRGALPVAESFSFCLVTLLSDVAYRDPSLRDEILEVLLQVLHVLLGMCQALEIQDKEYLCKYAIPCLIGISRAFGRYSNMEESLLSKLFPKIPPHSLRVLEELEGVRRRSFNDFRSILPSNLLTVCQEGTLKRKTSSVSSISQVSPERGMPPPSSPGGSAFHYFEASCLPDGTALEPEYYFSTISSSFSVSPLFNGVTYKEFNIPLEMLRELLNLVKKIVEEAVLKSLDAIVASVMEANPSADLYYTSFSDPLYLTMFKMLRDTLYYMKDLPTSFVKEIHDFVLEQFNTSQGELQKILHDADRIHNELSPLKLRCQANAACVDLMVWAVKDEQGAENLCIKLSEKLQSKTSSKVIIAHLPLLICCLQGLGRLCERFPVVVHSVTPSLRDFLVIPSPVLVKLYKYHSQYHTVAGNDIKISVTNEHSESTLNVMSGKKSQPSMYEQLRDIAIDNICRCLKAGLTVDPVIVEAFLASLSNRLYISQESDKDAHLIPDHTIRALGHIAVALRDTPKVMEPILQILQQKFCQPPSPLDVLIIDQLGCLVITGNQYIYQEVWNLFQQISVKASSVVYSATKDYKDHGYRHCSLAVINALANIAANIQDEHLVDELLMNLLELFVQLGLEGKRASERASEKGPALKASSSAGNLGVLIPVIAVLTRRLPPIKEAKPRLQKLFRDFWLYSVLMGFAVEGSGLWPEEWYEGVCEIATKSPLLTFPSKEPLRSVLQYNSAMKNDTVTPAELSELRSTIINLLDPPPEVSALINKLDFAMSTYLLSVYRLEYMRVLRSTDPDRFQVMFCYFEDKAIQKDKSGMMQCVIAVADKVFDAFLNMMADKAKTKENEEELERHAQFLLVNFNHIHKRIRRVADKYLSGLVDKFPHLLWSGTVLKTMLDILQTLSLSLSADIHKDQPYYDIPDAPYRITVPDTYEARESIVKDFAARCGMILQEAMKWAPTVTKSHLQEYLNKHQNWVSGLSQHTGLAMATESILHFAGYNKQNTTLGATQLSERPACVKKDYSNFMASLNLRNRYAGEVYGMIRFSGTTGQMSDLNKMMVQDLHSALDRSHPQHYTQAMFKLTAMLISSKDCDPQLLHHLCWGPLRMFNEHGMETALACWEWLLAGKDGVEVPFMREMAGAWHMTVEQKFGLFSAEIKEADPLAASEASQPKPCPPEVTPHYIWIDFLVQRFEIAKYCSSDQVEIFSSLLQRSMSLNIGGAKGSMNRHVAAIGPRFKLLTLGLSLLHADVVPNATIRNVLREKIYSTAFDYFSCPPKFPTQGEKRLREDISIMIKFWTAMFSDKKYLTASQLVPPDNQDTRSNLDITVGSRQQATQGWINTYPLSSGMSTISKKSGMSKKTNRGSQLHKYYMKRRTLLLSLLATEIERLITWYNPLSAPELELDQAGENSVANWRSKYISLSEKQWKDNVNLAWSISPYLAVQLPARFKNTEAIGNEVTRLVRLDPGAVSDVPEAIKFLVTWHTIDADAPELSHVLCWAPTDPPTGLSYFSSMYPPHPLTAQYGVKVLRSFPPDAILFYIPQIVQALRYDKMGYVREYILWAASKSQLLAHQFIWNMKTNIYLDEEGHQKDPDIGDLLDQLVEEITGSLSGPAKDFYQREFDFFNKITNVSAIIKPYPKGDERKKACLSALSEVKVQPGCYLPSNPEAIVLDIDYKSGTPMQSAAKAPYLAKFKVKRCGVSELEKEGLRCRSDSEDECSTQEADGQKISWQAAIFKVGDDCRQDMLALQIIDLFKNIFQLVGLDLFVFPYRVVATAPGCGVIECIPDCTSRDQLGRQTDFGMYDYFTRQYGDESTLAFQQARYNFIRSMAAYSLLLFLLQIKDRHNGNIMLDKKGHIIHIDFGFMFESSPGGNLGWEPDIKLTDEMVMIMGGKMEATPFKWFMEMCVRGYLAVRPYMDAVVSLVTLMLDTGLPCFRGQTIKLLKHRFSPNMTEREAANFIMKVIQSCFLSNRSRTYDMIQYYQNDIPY
T2 sequence (P42338 whole entry): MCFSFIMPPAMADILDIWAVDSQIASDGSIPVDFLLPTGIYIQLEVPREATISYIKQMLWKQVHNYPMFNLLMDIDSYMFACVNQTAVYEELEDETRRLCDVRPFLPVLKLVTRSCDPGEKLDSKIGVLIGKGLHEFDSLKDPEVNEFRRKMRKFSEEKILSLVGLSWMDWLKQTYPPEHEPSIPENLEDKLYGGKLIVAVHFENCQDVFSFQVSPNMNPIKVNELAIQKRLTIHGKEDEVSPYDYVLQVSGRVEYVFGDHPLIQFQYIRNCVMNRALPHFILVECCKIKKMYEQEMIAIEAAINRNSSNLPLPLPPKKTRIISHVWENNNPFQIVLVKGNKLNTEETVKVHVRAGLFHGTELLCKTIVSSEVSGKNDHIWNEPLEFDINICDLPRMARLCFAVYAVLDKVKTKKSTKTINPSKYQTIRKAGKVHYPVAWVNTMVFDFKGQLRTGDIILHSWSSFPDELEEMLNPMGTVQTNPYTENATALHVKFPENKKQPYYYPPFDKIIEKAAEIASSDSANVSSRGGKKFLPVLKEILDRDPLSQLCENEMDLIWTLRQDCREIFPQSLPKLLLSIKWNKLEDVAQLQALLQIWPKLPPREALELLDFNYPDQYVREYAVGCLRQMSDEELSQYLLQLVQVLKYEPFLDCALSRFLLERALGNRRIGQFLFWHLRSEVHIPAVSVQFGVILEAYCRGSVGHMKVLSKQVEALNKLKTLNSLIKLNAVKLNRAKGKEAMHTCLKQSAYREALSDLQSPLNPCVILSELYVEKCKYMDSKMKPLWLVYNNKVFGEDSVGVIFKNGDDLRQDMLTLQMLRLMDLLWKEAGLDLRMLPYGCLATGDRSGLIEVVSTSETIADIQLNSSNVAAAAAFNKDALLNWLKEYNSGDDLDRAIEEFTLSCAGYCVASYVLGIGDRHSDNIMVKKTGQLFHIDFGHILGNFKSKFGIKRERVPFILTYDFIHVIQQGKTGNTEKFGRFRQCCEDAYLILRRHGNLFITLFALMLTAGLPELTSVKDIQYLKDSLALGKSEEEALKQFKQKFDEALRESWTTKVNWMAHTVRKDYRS
T2 sequence (P27986 whole entry partner): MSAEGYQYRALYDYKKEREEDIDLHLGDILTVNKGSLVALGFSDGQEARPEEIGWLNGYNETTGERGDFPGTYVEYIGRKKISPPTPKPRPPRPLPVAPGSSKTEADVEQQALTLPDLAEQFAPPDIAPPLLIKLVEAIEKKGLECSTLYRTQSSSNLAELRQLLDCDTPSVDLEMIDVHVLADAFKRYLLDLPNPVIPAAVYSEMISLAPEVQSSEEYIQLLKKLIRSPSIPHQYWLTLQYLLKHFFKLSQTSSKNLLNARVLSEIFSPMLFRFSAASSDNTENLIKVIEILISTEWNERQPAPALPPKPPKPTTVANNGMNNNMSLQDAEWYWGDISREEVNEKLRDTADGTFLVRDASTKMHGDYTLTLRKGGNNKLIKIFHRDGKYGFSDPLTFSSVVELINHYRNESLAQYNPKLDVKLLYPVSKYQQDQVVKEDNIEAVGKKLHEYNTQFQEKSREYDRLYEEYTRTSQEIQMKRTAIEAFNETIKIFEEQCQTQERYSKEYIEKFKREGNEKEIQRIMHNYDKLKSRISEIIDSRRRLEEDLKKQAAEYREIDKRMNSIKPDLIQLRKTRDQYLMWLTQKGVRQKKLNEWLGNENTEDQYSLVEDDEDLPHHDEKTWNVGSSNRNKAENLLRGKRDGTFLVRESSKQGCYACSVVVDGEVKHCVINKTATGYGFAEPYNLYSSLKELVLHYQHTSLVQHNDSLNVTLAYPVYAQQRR

SMILES: CC(=O)Nc1nc(C)c(-c2ccc(Cl)c(S(=O)(=O)NCCO)c2)s1 [PIK93, reference compound]
IC50 [1, 8]: 401 nM

SMILES: COc1ccc(-c2c(C)nn3c(NCCN4CCOCC4)cc(C)nc23)cc1OC [T-00127-HEV1, reference compound]
IC50 ([1]; RPMI-1788, 144 h, read-out: IC50 MLR): 842 nM

Kinase activity (PI4KA (PI4K alpha)): 90 percentage of control | Kinase activity [2]: 82 percentage of control | IC50 [3]: 14.3 nM | inhibition at 10 µM [3]: 99.5% | Kinase activity (PAK1): 108 percentage of control | Kinase activity (LOK (h)): 98 percentage of control | Kinase activity (YSK4 (h)): 79 percentage of control
SMILES: Cc1cccc(NC(=O)N2CCN(c3nc(N)nc4sc(-c5cccnc5)nc34)CC2)c1 [formula (2), 4-[5-amino-2-(pyridin-3-yl)thiazolo[5,4-d]pyrimidin-7-yl]-N-m-tolylpiperazine-1-carboxamide]

SMILES: Cc1ccc(NC(=O)N2CCN(c3nc(N)nc4sc(-c5cccnc5)nc34)CC2)cc1 [formula (3)]
grafts with prolonged survival at day 30 ([4]; Example 9, each group (40, 50, 60 mg/kg/d)): 3 out of 6 | day of rejection of second graft from third party donor [4, 9]: 8 days | time second graft from same donor strain was functional [4, 9]: more than 90 days | IC50 ([5]; read-out: IC50 for inhibition of IFNγ release): < 1 nM | IC50 ([5]; read-out: IC50 for inhibition of IL2 release): < 1 nM | histological scores (hyperplasia, infiltration, pannus) ([6]; joints day 42): reduced | onset of arthritic symptoms ([6]; preventive, vs vehicle): delay the onset of arthritic symptoms | symptom severity ([6]; preventive, vs vehicle): decrease symptom severity | anti-CII IgG titre ([6]; serum day 42): reduced | Surviving days (cardiac graft) ([7]; 20 mg/kg/d daily gavage, individual animals, 20 mg/kg/day): up to 13 days | grafts continuously functioning after stopping the treatment on day 30 ([7]; 40 mg/kg per day): 3/4 | grafts with continuous survival while treatment continued ([7]; 40 mg/kg per day): 4/6

IC50 [3]: 21.8 nM | inhibition at 10 µM [3]: 95%
SMILES: Nc1nc(N2CCN(C(=O)COc3ccc(F)cc3)CC2)c2nc(-c3cccnc3)sc2n1 [formula (4)]
IC50 [1, 8]: < 50 nM | IC50 ([1]; read-out: IC50 MLR, 6 days culture): 25 nM
